In patent US20250280827A1, “An antifungal composition comprising natamycin and at least one insecticide” (priority 2021, published 2025) one finds Avg infected area and Observed antifungal activity data, which are given here for eight molecules.

Holding throughout (type): in vivo
In assay [1] the test system is Colletotrichum spp. The experiment in a line: Antifungal effect against Colletotrichum infection on wounded skin of pepper fruits (Colby synergy). The source says: wherein X and Y are the observed antifungal activities (in %) of the individual active ingredients x and y, respectively. If the observed antifungal activity (O in %) of the combination exceeds the expected antifungal activity (E in %) of the combination and the synergy factor O/E is thus >1.0, the combined application of the active ingredients leads to a synergistic antifungal effect. […]
For the treatment, 5 wounds per pepper side were done as previously described. In addition, one wound was done as negative control. Depending on the number of sides of the pepper, 3 to 4 treatments were done per paprika. Per wound 10 μl of treatment was placed on the wound. The treatments were let to dry in a down flow cabinet for about 30 minutes. After drying 5 μl spore suspension at a concentration of 10^7 spores per ml were placed on the wounds. The fungus was isolated from Colletotrichum-infected plant material and identified using techniques known to the person skilled in the art. The pepper were placed as described previously in a transparent container, with the difference that the containers were then placed in a transparent plastic zipper bag. The bags with peppers were placed at room temperature and in the dark for two days. After that the size of the lesions were measured. Assessment of the infection area was 4 days after inoculation. Experiment was performed in 5-fold.
The fungus was isolated from Colletotrichum-infected plant material and identified using techniques known to the person skilled in the art. Assessment of the infection area was performed 5 days after inoculation. Experiment was performed in 5-fold.
The active ingredient imidacloprid was formulated as described in Table 2. Imidacloprid belonging to IRAC Group 4. The fungus was isolated from Colletotrichum-infected plant material and identified using techniques known to the person skilled in the art. Assessment of the infection area was performed 5 days after inoculation. Experiment was performed in 5-fold.
The fungus was isolated from Colletotrichum-infected plant material and identified using techniques known to the person skilled in the art. Assessment of the efficacy was 5 days after inoculation. Experiment was performed in 5-fold.
The fungus was isolated from Colletotrichum-infected plant material and identified using techniques known to the person skilled in the art. Assessment of the infection area was performed 6 days after inoculation. Experiment was performed in 5-fold.
The fungus was isolated from Colletotrichum-infected plant material and identified using techniques known to the person skilled in the art. Assessment of the infection area was performed 4 days after inoculation. Experiment was performed in 5-fold.

The subject of assay [2] is Botrytis cinerea. In words: Antifungal effect against Botrytis cinerea infection on wounded peel of banana fruits (Colby synergy). The note with it: 3 days after inoculation. An excerpt: (§1) wherein X and Y are the observed antifungal activities (in %) of the individual active ingredients x and y, respectively. If the observed antifungal activity (O in %) of the combination exceeds the expected antifungal activity (E in %) of the combination and the synergy factor O/E is thus >1.0, the combined application of the active ingredients leads to a synergistic antifungal effect.
(§2) Application: The broad bean pods were washed under tap water, and were subsequently surface sterilized by placing them in a 0.1% sodium hypochlorite solution for 5 minutes. The pods were then rinsed with tap water and dried. Transparent plastic containers were prepared by placing a piece of absorbing paper in the container and adding 25 ml of water, one container per treatment was used. The pods were cut in two, and two halve pods were incubated per box. The skin of broad bean pods was damaged with a needle, ø 2 mm and to a depth of about 3 mm into the fruit, with—depending on the size of the pod—2 to 4 wounds per half pod. In total, 6 wounds were incubated per treatment, of which 1 was used as a control. A volume of 20 microliter of a natamycin/insecticide composition, as presented herein above, was applied by pipette to each wound. The treatments were then left to air-dry. Once dried, a mycelium plug of Sclerotinia sclerotiorum was placed upside down on each wound, so that the mycelium was in direct contact with the wound. Per treatment 5 wounds were inoculated with the fungus, while the 6th and last wound was used as negative non-inoculated control. After inoculation, the containers were directly closed with a transparent plastic lid.
The infection area was measured 5 days after inoculation.
A few changes were made for the banana experiments: 5 wounds per banana were made, on each wound 40 microliter of treatments was pipetted. The treatments were then left to air-dry. Once dried, 2 microliter of a freshly prepared inoculum was pipetted on four of the wounds. The inoculum consists of […] potato dextrose broth (PDB) medium containing Botrytis cinerea spores at a concentration of 10^6 spores per ml. The fifth wound was used as negative non-inoculated control. Experiment was performed in 4-fold.
Assessment of the infection area was performed 3 days after inoculation. Experiment was performed in 4-fold.
Imidacloprid was formulated as described in Table 2. Assessment of the efficacy was 5 days after inoculation. Experiment was performed in 4-fold.

The subject of assay [3] is Sclerotinia sclerotiorum. In words: Antifungal effect against Sclerotinia sclerotiorum infection on wounded skin of broad bean pods (rot area, Colby synergy).
From the text: The Colby equation (Colby, 1967. Weeds 15:20-22) calculates the expected antifungal activity (E in %) of a combination comprising more than one active ingredients:
as §1
• 1) Control (without natamycin and lambda-cyhalothrin) • 2) Natamycin at a level of 15 ppm • 3) Lambda-cyhalothrin (in the product KARATE ZEON® of Syngenta) at a levels of 0.15 ppm, 0.6 ppm, 3 ppm and 15 ppm • 4) Natamycin at a level of 15 ppm combined with lambda-cyhalothrin at levels of 0.15 ppm, 0.6 ppm, 3 ppm or 15 ppm.
Used pathogen: Sclerotinia sclerotiorum.
as §2
All pods were kept at room temperature (20° C.). Wounds of the pods were checked after 30 h of incubation.
Replicates: All treatments for the broad bean pod experiment were performed on two individual pod halves resulting in 5 wounds per treatment, while a sixth wound served as control.
The experiments were performed as described in Example 1.
The experiments were performed as described in Example 1. Assessment of the infection area was 23 h after inoculation. Experiment was performed in 5-fold.
The experiments were performed as described in Example 1. Thiamethoxam belongs to IRAC Group 4. Assessment of the infection area was 31 hours after inoculation. Experiment was performed in 5-fold.
The experiments were performed as described in Example 1. The product SPECTRE® of company (Adama) containing the active ingredient chlorfenapyr belonging to IRAC Group 13 was tested. Assessment of the infection area was 23 hours after inoculation. Experiment was performed in 5-fold.

The mark [4] stands for this setting: natamycin:abamectin 0:0.01 ppm, 4 days after inoculation, Table 20.
The mark [5] stands for this setting: natamycin:abamectin 0:0.04 ppm, 4 days after inoculation, Table 20.
[6] abbreviates: natamycin-insecticide 0:0.004 ppm, Table 14B.
[7] abbreviates: natamycin-insecticide 0:0.01 ppm, Table 14A.
Setting [8] is: natamycin-insecticide 0:0.04 ppm, Table 14A.
The mark [9] stands for this setting: natamycin-insecticide 0:1 ppm, Table 14A.
Where [10] appears, read: natamycin-insecticide 0:0.01 ppm, 5 days after inoculation, Table 15.
Setting [11] is: natamycin-insecticide 0:0.04 ppm, 5 days after inoculation, Table 15.
The mark [12] stands for this setting: natamycin-insecticide 0:1 ppm, 5 days after inoculation, Table 15.
[13] abbreviates: natamycin-insecticide 0:0.01 ppm, 4 days after inoculation, Table 13.
[14] abbreviates: natamycin-insecticide 0:0.04 ppm, 4 days after inoculation, Table 13.
The mark [15] stands for this setting: natamycin-insecticide 0:1 ppm, 4 days after inoculation, Table 13.
Where [16] appears, read: natamycin:fipronil 0:0.01 ppm, 6 days after inoculation, Table 19.
Where [17] appears, read: natamycin:fipronil 0:0.04 ppm, 6 days after inoculation, Table 19.
Setting [18] is: natamycin:fipronil 0:1 ppm, 6 days after inoculation, Table 19.
Setting [19] is: natamycin-insecticide 0-0.15 ppm, 31 hours after inoculation, Table 8.
Where [20] appears, read: natamycin-insecticide 0-0.6 ppm, 31 hours after inoculation, Table 8.
[21] abbreviates: natamycin-insecticide 0-3 ppm, 31 hours after inoculation, Table 8.
Where [22] appears, read: natamycin-insecticide 0-15 ppm, 31 hours after inoculation, Table 8.
[23] abbreviates: natamycin-insecticide 0:0.01 ppm, 5 days after inoculation, Table 17.
Where [24] appears, read: natamycin-insecticide 0:0.04 ppm, 5 days after inoculation, Table 17.
Setting [25] is: natamycin-insecticide 0:1 ppm, 5 days after inoculation, Table 17.
[26] abbreviates: natamycin-insecticide 0-0.15 ppm, 23 h after inoculation, Table 7.
Setting [27] is: natamycin-insecticide 0-0.6 ppm, 23 h after inoculation, Table 7.
Setting [28] is: natamycin-insecticide 0-3 ppm, 23 h after inoculation, Table 7.
The mark [29] stands for this setting: natamycin-insecticide 0-15 ppm, 23 h after inoculation, Table 7.
The mark [30] stands for this setting: natamycin-insecticide 0-0.15 ppm, 23 hours after inoculation, Table 9.
Setting [31] is: natamycin-insecticide 0-0.6 ppm, 23 hours after inoculation, Table 9.
Setting [32] is: natamycin-insecticide 0-3 ppm, 23 hours after inoculation, Table 9.
[33] abbreviates: natamycin-insecticide 0-15 ppm, 23 hours after inoculation, Table 9.

abamectin: the values for the Avg infected area in assay [1] (setting [4]) and in assay [1] (setting [5]) were 29.0 mm2 and 30.7 mm2, respectively. The Observed antifungal activity was −29.3% in assay [1] (setting [4]) and −37.0% in assay [1] (setting [5]).
For `CC1(C)[C@H](C(=O)O[C@H](C#N)c2cccc(Oc3ccccc3)c2)[C@@H]1C=C(Cl)Cl` [alpha-cypermethrin, [(S)-cyano-(3-phenoxyphenyl)methyl] (1R,3R)-3-(2,2-dichloroethenyl)-2,2-dimethylcyclopropane-1-carboxylate], the Avg infected area in assay [2] (setting [6]) is reported as 6.2 mm2; in assay [2] (setting [7]), 9.0 mm2; in assay [2] (setting [8]) it was 9.1 mm2; in assay [2] (setting [9]), 9.9 mm2; in assay [1] (setting [10]), 44.8 mm2; in assay [1] (setting [11]), 22.5 mm2. In assay [1] (setting [12]), the Avg infected area came to 20.6 mm2. The Observed antifungal activity in assay [2] (setting [6]) was 37.2%; in assay [2] (setting [7]), 20.5%; in assay [2] (setting [8]), 19.8%; in assay [2] (setting [9]), 12.8%; in assay [1] (setting [10]) it was −6.1%; in assay [1] (setting [11]), 46.7%. Moreover, the Observed antifungal activity in assay [1] (setting [12]) came out at 51.2%.
In the case of “emamectin benzoate [emamection benzoate]”, the Avg infected area in assay [1] (setting [13]) amounted to 30.6 mm2; in assay [1] (setting [14]), 16.6 mm2; in assay [1] (setting [15]), 24 mm2. Moreover, the results for the Observed antifungal activity in assay [1] (setting [13]), in assay [1] (setting [14]) and in assay [1] (setting [15]) were −90.1%, −3.5% and −49.1%, respectively.
For `N#Cc1nn(-c2c(Cl)cc(C(F)(F)F)cc2Cl)c(N)c1[S+]([O-])C(F)(F)F` (racemic) [fipronil, (±)-5-amino-1-(2,6-dichloro-α,α,α-trifluoro-p-tolyl)-4-trifluoromethyl sulfinylpyrazole-3-carbonitrile], the Avg infected area in assay [1] (setting [16]) was 88.2 mm^2; in assay [1] (setting [17]) it was 76.8 mm^2; in assay [1] (setting [18]), 80.4 mm^2. Besides, the figures for the Observed antifungal activity in assay [1] (setting [16]), in assay [1] (setting [17]) and in assay [1] (setting [18]) were −76.1%, −53.4% and −60.5%, respectively.
For `CN1COCN(Cc2cnc(Cl)s2)C1=N[N+](=O)[O-]` [thiamethoxam, N-[3-[(2-chloro-1,3-thiazol-5-yl)methyl]-5-methyl-1,3,5-oxadiazinan-4-ylidene]nitramide], the Avg infected area in assay [3] (setting [19]) is recorded as 250.6 mm2; in assay [3] (setting [20]), 270.9 mm2; in assay [3] (setting [21]), 253.2 mm2; in assay [3] (setting [22]) it was 254.1 mm2. Also, the Observed antifungal activity was 2.9% in assay [3] (setting [19]), −4.9% in assay [3] (setting [20]), 1.9% in assay [3] (setting [21]) and 1.6% in assay [3] (setting [22]).
For the molecule `CNC(=O)c1cc(Cl)cc(C)c1NC(=O)c1cc(Br)nn1-c1ncccc1Cl` [chlorantraniliprole, 5-bromo-N-[4-chloro-2-methyl-6-(methylcarbamoyl)phenyl]-2-(3-chloropyridin-2-yl) pyrazole-3-carboxamide], the figures for the Avg infected area in assay [1] (setting [23]), in assay [1] (setting [24]) and in assay [1] (setting [25]) were 38.8 mm2, 55.6 mm2 and 66.4 mm2, respectively. In addition, the Observed antifungal activity was 29.8% in assay [1] (setting [23]), −0.7% in assay [1] (setting [24]) and −20.2% in assay [1] (setting [25]).
Consider `C/C=C(\C)C(=O)O[C@H]1C[C@@H](OC(C)=O)[C@@]2(C(=O)OC)CO[C@H]3[C@@H](O)[C@@](C)([C@]45O[C@@]4(C)[C@H]4C[C@@H]5O[C@@H]5OC=C[C@@]54O)[C@H]4[C@]1(CO[C@]4(O)C(=O)OC)[C@@H]32` [azadirachtin], for which the Avg infected area in assay [3] (setting [26]) stood at 80.2 mm2; in assay [3] (setting [27]), 82.0 mm2; in assay [3] (setting [28]), 98.3 mm2; in assay [3] (setting [29]), 123.1 mm2. For the same molecule, the Observed antifungal activity in assay [3] (setting [26]) is recorded as 41.3%; in assay [3] (setting [27]) it was 40%; in assay [3] (setting [28]), 28.1%; in assay [3] (setting [29]), 9.9%.
`CCOCn1c(-c2ccc(Cl)cc2)c(C#N)c(Br)c1C(F)(F)F` [chlorfenapyr]: the Avg infected area came to 86.9 mm2 in assay [3] (setting [30]), 71.3 mm2 in assay [3] (setting [31]), 92.3 mm2 in assay [3] (setting [32]) and 94.9 mm2 in assay [3] (setting [33]). Further, the Observed antifungal activity in assay [3] (setting [30]) worked out at 23.6%; in assay [3] (setting [31]), 37.3%; in assay [3] (setting [32]) it was 18.8%; in assay [3] (setting [33]), 16.5%.
